“Also recorded” adds a separate entry of the source.
How the values were obtained:
Format in all cases: cell-based, human
Jurkat cells [1] = experiment: Flow cytometry (PI, La, hTERT, TRF2 staining) of Jurkat cells after cytotoxic treatment; settings: FIG. 4B; for hTERT staining of Jurkat cells: 48 h treatment, only in PI high cells
Description: (§1) FIG. 4 is a graphical representation of the cytotoxic treatment of malignant human cells results in increased expression of TRF2 and La in apoptotic cells 24 h after treatment and in increased expression of hTERT in apoptotic cells 48 h after treatment. A. Jurkat cells after 24 h treatment with cytotoxic agents. […] B. Jurkat cells after 48 h treatment with cytotoxic agents. […] C. Raji cells after 24 h treatment with cytotoxic agents. […] D. Jurkat cells after 24 h treatment with cytotoxic agents. […] E. Jurkat cells after 48 h treatment with cytotoxic agents. Staining for La (3B9-F1TC) and TRF2 in apoptotic cells was more evident 48 h after treatment with all cytotoxic agents. F. Raji cells after 48 h treatment with cytotoxic agents. […] G. HeLa cells after 48 h treatment with cytotoxic agents. […] In each case, the staining is indicated above each column of panels and the cytotoxic employed is indicated to the left of each row of panels. Also indicated is a PI only control and negative controls for hTERT staining (purified rat IgG or anti-rat secondary antibody alone) and for TRF2 staining (purified mouse IgG or anti-mouse secondary antibody alone).
(§2) The Jurkat and Raji cell lines were cultured in RPMI supplemented with 10% FCS, 50 U/mL penicillin and 50 μg/mL streptomycin sulphate and the U2OS and HeLa cell lines were cultured in DMEM supplemented with 10% FCS, 50 U/mL penicillin and 50 μg/mL streptomycin sulphate (JRH Laboratories). The cell lines were treated for 24 or 48-hour periods with various cytotoxic agents as follows: Jurkat and Raji cells with etoposide, 20 μg/mL; HeLa and U2OS cells with cisplatin, 1 μg/mL, and vincristine, 0.1 μg/mL; Jurkat, HeLa and U2OS cells with 0.5 μM STS, and Raji cells with 2 μM STS. The treated cells were stained with propidium iodide (PI) (Sigma) 0.5 μg/mL and FITC-conjugated Sal5 or 3B9 mAb, or mouse anti-TRF2 mAb (clone 36, Becton-Dickinson) and then secondary antibody, anti mouse FITC (Chemicon, Temecula, Calif., USA), or rat anti-hTERT mAb (clone 36-10, Alexis Biochemicals) and then secondary antibody, anti rat FITC (Caltag, Burlingame, Calif., USA). Purified mouse IgG or rat IgG (Institute of Medical and Veterinary Science, Adelaide, Australia) were used as negative controls for TRF2 and hTERT staining, respectively. To further improve the method for detection of hTERT for later use in whole blood staining, which appeared to have been hindered by the presence of autofluorescence presumably emanating from red blood cells, anti-hTERT monoclonal antibody clone 36-10 was conjugated directly to AlexaFluor350 (Molecular Probes), which is excited at 355 nm and emits maximally between 420-460 nm. Anti-hTERT-Alexa350 was combined with the EpCAM monoclonal antibody (BD Biosciences), which is conjugated to PE that excites at 488 nm and emits 560-590 nm, and the nuclear impermeant DNA-binding dye TOPRO-3 (Molecular Probes), which excites at 560 nm and emits maximally in the far red region (>650 nm).
The human T cell leukemia cell line, Jurkat, and the human B lymphoma cell line, Raji, were treated for 24 or 48 hour periods with the following cytotoxic agents: staurosporine, which is a pan-kinase inhibitor, etoposide, which is a topoisomerase II inhibitor, vincristine, which is a microtubule depolymerising agent and cisplatin, which is a DNA cross linking agent. Cells were then stained with propidium iodide (PI) and the anti-La monoclonal antibody (mAb), 3B9, or its isotype control, Sal5, or with mAbs specific for hTERT or TRF2. As negative controls for staining with the hTERT- or TRF2-specific mAbs, rat IgG and anti-rat secondary antibody or mouse IgG and anti-mouse secondary antibody, respectively, were used.

HeLa cells = experiment: Flow cytometry (PI, La, hTERT, TRF2 staining) of HeLa cells after cytotoxic treatment; settings: FIG. 4G; for apoptosis and La staining in HeLa cells: 48 h treatment
Description: as §1, §2
Similarly, TRF2 staining of PI^+ dead Jurkat cells was evident as soon as 24 hours after cytotoxic treatment (FIG. 4D) and 48 hours afterwards (F1G. 4E). […] In contrast, it took 48 hours after treatment with cisplatin, etoposide and vincristine for hTERT staining of PI^+ dead Jurkat cells to be evident (arrows, FIG. 4B). hTERT staining of PI^+ dead Raji cells was evident 48 hours after treatment with vincristine (arrow, FIG. 4C). As additional controls, the telomerase-expressing human cervical carcinoma cell line, HeLa, and the telomerase-negative human osteosarcoma cell line, U2OS (M Frolkis et al. Cancer Gene Therapy 10, 239-249, 2003), were also treated with staurosporine, vincristine and etoposide and analysed by flow cytometry 48 hours after treatment.

U2OS cells [2] = experiment: Flow cytometry (PI, La, hTERT, TRF2 staining) of U2OS cells after cytotoxic treatment; settings: FIG. 4H
Description: as §1, §2
Similarly, TRF2 staining of PI^+ dead Jurkat cells was evident as soon as 24 hours after cytotoxic treatment (FIG. 4D) and 48 hours afterwards (F1G. 4E). […] As additional controls, the telomerase-expressing human cervical carcinoma cell line, HeLa, and the telomerase-negative human osteosarcoma cell line, U2OS (M Frolkis et al. Cancer Gene Therapy 10, 239-249, 2003), were also treated with staurosporine, vincristine and etoposide and analysed by flow cytometry 48 hours after treatment.

H69 cells = experiment: BerEP4-FITC / PI staining of etoposide-treated H69 cells; settings: 48 hours
Description: FIG. 8 is a graphical representation of the staining of H69 cells using the anti-epithelial marker monoclonal antibody BerEP4-FITC. H69 cells (1×10^6 cells/mL) were cultured in RPMI-1640 containing 5% FCS in the absence or presence of the specified concentrations of etoposide (0-400 μg/mL). After 48 hours of incubation, cells were collected and incubated at room temperature for 15 minutes with (A) 5 μg/mL BerEP4-FITC or (B) 5 μg/mL mouse IgG2aκ-FITC isotype. Cells were washed and pellets were resuspended in 0.5 μg/mL solution of PI in PBS then analysed by flow cytometry.

Raji cells = experiment: Flow cytometry (PI, La, hTERT, TRF2 staining) of Raji cells after cytotoxic treatment; settings: for TRF2 staining of Raji cells: 48 hours, FIG. 4F
Description: as §1
as §2, with “Anti-hTERT-Alexa350 was combined with the EpCAM monoclonal antibody (BD Biosciences), which is conjugated to PE that excites at 488 nm and emits 560-590 nm, and the nuclear impermeant DNA-binding dye TOPRO-3 (Molecular Probes), which excites at 560 nm and emits maximally in the far red region (>650 nm).” left out

U2OS cells [3] = experiment: Viability analysis using trypan blue staining after induction of apoptosis, U2OS cells; settings: 0.5 μM staurosporine
Description: (§3) Jurkat cells (ATCC #TIB-152) were maintained in RPMI 1640 supplemented with 5% fetal calf serum (FCS). U2OS cells (ATCC #HTB-96) were maintained in DMEM supplemented with 5% FCS and passaged every 48-72 hours after detachment with Trypsin EDTA. Jurkat cells express telomerase and thus have the integral RNA component, hTR, whereas U2OS cells lack telomerase and hTR. Apoptosis was induced by the addition of 0.5 μM staurosporine to the culture media for 24, 48 or 72 hours.
(§4) The RNA for hTR was not detected in the hTR-negative U2OS cells but was detected in the hTR-positive Jurkat cells 24, 48 and 72 hours after the induction of apoptosis.

Jurkat cells [4] = experiment: Viability analysis using trypan blue staining after induction of apoptosis, Jurkat cells; settings: 0.5 μM staurosporine
Description: as §3, §4

PBMC = experiment: hTERT / 7-AAD staining of PBMC after staurosporine-induced apoptosis; settings: 24 hours after induction of apoptosis, 1 μM staurosporine, FIG. 5
Description: (§5) FIG. 5 is a graphical representation of the culturing of PMBC with conconavalin A (conA) 10 μg/mL for 72 h. Viable cells were obtained by density gradient centrifugation and then apoptosis was induced using 1 μM staurosporine for 24 h. Jurkat cells were also treated with 1 μM staurosporine for 24 h. Dot plots depict staining for 7-AAD and hTERT. The negative control is staining with the secondary antibody alone.
(§6) Peripheral blood mononuclear cells (PBMC) were prepared from a buffy coat of a discarded unit of whole blood that had been obtained from the South Australian Red Cross Blood Bank. Initially, PBMC had been separated by density gradient centrifugation over Lymphoprep (Axis-Shield, Dundee, UK) and frozen in aliquots using a controlled rate freezer. […]
(§7) After treatment, all cells were harvested, washed in PBS and stained with 7-amino actinomycin D (7-AAD) (2 μg/mL) and anti-La 3B9 mAb or its isotype control mAb, Sal5, and then with the secondary anti-mouse antibody conjugated to R-phycoerythrin (Zymed, San Francisco, Calif., USA), or with rat anti-hTERT mAb (Alexis Biochemicals, San Diego, Calif., USA) and then with the secondary anti-rat antibody conjugated to FITC (Chemicon). Cells were analysed using a FACScan (Becton Dickinson, Franklin Lakes, N.J., USA) and the results analysed with WinMDI v2.8 software.

Jurkat cells [5] = experiment: hTERT / 7-AAD staining of Jurkat cells after staurosporine-induced apoptosis; settings: 24 hours after induction of apoptosis, 1 μM staurosporine, FIG. 5
Description: as §5, §6, §7

Row | SMILES | hTERT staining of Jurkat cells (Jurkat cells [1]) | time after treatment for hTERT staining of PI+ dead Jurkat cells to be evident (Jurkat cells [1]) | hTERT staining of PI+ dead HeLa cells (HeLa cells; 48 hours after treatment) | apoptosis and La staining in HeLa cells (HeLa cells) | hTERT staining of PI+ dead U2OS cells (U2OS cells [2]; 48 hours after treatment) | TRF2 staining of Raji cells (Raji cells) | other results
1 | COc1cc([C@@H]2c3cc4c(cc3[C@@H](O[C@@H]3O[C@@H]5CO[C@@H](C)O[C@H]5[C@H](O)[C@H]3O)[C@H]3COC(=O)[C@H]23)OCO4)cc(OC)c1O [etoposide] | increased staining for hTERT | 48 h | Evident staining; also recorded: staining for hTERT | induced apoptosis | not | – | TRF2 staining of PI+ dead HeLa cells (HeLa cells; 48 hours after treatment): Evident staining; also recorded: little staining for TRF2; etoposide concentration giving maximal proportion of dead (BerEP4+ PI+) H69 carcinoma cells (H69 cells; FIG. 8A): 200 to 400 µg/mL; extent of cell death of H69 cells (H69 cells; etoposide 0-400 μg/mL, FIG. 8): dose-dependent
2 | CC[C@]1(O)C[C@H]2CN(CCc3c([nH]c4ccccc34)[C@@](C(=O)OC)(c3cc4c(cc3OC)N(C=O)[C@H]3[C@@](O)(C(=O)OC)[C@H](OC(C)=O)[C@]5(CC)C=CCN6CC[C@]43[C@@H]65)C2)C1 [vincristine] | increased staining for hTERT | 48 h | Evident staining; also recorded: staining for hTERT | induced apoptosis | not | slightly increased staining; also recorded: increased TRF2 staining | hTERT staining of Raji cells (Raji cells; 24 h treatment (legend FIG. 4C)): marginally increased staining; hTERT staining of PI+ dead Raji cells (Raji cells; 48 hours after treatment (text, FIG. 4C)): evident
3 | CN[C@@H]1C[C@H]2O[C@@](C)([C@@H]1OC)n1c3ccccc3c3c4c(c5c6ccccc6n2c5c31)C(=O)NC4 [staurosporine] | – | – | Evident staining; also recorded: staining for hTERT | induced apoptosis | not and no corresponding staining | – | U2OS cells dead (trypan blue) (U2OS cells [3]; 24 hours): 36%; U2OS cells dead (trypan blue) (U2OS cells [3]; 48 hours): 95%; U2OS cells dead (trypan blue) (U2OS cells [3]; 72 hours): 100%; Jurkat cells dead (trypan blue) (Jurkat cells [4]; 24 hours): 40%; Jurkat cells dead (trypan blue) (Jurkat cells [4]; 48 hours): 85%; Jurkat cells dead (trypan blue) (Jurkat cells [4]; 72 hours): 100%; TRF2 staining of PI+ dead U2OS cells (U2OS cells [2]; 48 hours after treatment): no corresponding staining; apoptosis and La staining in U2OS cells (U2OS cells [2]; 48 h treatment): induced apoptosis; telomerase expression in dead PBMC (PBMC): little if any; telomerase expression in Jurkat cells (Jurkat cells [5]): little if any
4 | N.N.[Cl][Pt][Cl] [cisplatin] | increased staining for hTERT | 48 h | – | – | – | slightly increased staining; also recorded: increased TRF2 staining | –

From patent publication US20090214420A1, “Method of Diagnosis and Treatment and Agents Useful for Same” (MEDVET SCIENCE PTY. LTD., priority 2005, published 2009)
